According to patent US11618747B2, “LXR modulators with bicyclic core moiety” (OrsoBio, Inc., priority 2018, dated 2023):
Like-named read-outs stand apart in the source and are kept apart here.

What was measured:
[1] = biological target: T1, LXRβ ligand-binding domain (Homo sapiens, UniProt P55055, DUP175-175); assay: TR-FRETβ activity assay (NCoA3 coactivator peptide recruitment); type: biochemical
T1 construct: amino acids 156-461; NP009052; made in house; host or cells: E. coli
T1 sequence (P55055 with tags, fused parts or gaps DUP175-175 limits assumed): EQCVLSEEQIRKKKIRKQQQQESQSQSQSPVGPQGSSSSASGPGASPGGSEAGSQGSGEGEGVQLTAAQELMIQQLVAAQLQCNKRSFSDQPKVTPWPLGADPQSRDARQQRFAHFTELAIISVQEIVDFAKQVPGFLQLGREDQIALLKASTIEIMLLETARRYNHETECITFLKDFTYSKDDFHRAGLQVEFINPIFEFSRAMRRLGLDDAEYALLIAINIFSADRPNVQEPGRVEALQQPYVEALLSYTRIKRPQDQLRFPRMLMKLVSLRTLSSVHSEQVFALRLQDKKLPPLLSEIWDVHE
In short: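 GST-tagged human LXRβ LBD (aa 156-461, E. coli) at 76 nM with 400 nM biotinylated NCoA3 peptide in Tris/HCl pH 6.8, 240 mM KCl, BSA, 0.002% Triton-X-100, plus 1 μM 24(S)-25-epoxycholesterol as prestimulating agonist. Compounds at 50 μM down to 0.002 μM, 1 h at 4 °C. Coactivator recruitment by TR-FRET (Tb cryptate/XL665, 615/665 nm), triplicates.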

full length (FL) LXRβ = biological target: T2, full length (FL) LXRβ (Homo sapiens, UniProt P55055, DUP175-175); assay: LXR Gal4 reporter transient transfection assay (FL-M2H Gal4β); type: cell-based; details: HEK293 cells
T2 construct: the full length (FL) proteins of LXRα (amino acids 1-447); NP005684; NP009052; expressed in transfected cells; host or cells: HEK293
T2 sequence (P55055 with tags, fused parts or gaps DUP175-175): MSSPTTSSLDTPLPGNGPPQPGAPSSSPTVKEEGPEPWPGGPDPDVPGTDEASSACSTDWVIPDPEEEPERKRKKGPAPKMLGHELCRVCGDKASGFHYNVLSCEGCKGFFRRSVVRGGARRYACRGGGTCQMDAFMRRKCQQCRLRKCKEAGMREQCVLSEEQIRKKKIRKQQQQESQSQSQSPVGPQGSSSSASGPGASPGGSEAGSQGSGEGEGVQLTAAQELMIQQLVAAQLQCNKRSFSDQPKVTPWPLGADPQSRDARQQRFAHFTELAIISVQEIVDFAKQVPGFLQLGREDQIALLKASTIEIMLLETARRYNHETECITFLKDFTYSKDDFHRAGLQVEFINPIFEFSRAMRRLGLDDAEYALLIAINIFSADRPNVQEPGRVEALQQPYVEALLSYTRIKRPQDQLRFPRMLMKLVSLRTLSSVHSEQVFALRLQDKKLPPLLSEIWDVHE
In short: (§1)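 HEK293 cells were transiently co-transfected with NFkB activation-domain fusions of LXR (full length or LBD) and GAL4 DNA-binding-domain fusions of SRC1 (aa 552-887) or NCoR (aa 1906-2312), plus a GAL4-response-element Firefly luciferase reporter and a Renilla control. Compounds were added 4 h post-transfection, cells incubated 16 h, then dual luciferase read.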

[2] = Short term HFD mouse model: plasma and liver exposure; type: in vivo, mice (C57BL/6J); details: HFD mice, 4 h after last dose
Procedure: Short Term HFD Mouse Model:
The in vivo transcriptional regulation of several LXR target genes by LXR modulators was assessed in mice.
For this, C57BL/6J were purchased from Elevage Janvier (Rennes, France) at the age of 8 weeks. After an acclimation period of two weeks, animals were preferred on a high fat diet (HFD) (Ssniff Spezialdiäten GmbH, Germany, Surwit EF D12330 mod, Cat. No. E15771-34), with 60 kcal % from fat plus 1% (w/w) extra cholesterol (Sigma-Aldrich, St. Louis, Mo.) for 5 days. Animals were maintained on this diet during treatment with LXR modulators. The test compounds were formulated in 0.5% hydroxypropylmethylcellulose (HPMC) and administered in three doses (from 1.5 to 20 mg/kg each) by oral gavage according to the following schedule: on day one, animals received treatment in the morning and the evening (ca. 17:00), on day two animals received the final treatment in the morning after a 4 h fast and were sacrificed 4 h thereafter. Animal work was conducted according to the national guidelines for animal care in Germany.
Upon termination, liver was collected, dipped in ice cold PBS for 30 seconds and cut into appropriate pieces. Pieces were snap frozen in liquid nitrogen and stored at −80° C. For the clinical chemistry analysis from plasma, alanine aminotransferase (ALT, IU/mL), cholesterol (CHOL, mg/dL) and triglycerides (TG, mg/dL) were determined using a fully-automated bench top analyzer (Respons®910, DiaSys Greiner GmbH, Flacht, Germany) with system kits provided by the manufacturer.

full length (FL) LXRα = biological target: T3, full length (FL) LXRα (Homo sapiens, UniProt Q13133); assay: LXR Gal4 reporter transient transfection assay (FL-M2H Gal4α); type: cell-based; details: HEK293 cells
T3 construct: the full length (FL) proteins of LXRα (amino acids 1-447); NP005684; expressed in transfected cells; host or cells: HEK293
T3 sequence (Q13133 1-447): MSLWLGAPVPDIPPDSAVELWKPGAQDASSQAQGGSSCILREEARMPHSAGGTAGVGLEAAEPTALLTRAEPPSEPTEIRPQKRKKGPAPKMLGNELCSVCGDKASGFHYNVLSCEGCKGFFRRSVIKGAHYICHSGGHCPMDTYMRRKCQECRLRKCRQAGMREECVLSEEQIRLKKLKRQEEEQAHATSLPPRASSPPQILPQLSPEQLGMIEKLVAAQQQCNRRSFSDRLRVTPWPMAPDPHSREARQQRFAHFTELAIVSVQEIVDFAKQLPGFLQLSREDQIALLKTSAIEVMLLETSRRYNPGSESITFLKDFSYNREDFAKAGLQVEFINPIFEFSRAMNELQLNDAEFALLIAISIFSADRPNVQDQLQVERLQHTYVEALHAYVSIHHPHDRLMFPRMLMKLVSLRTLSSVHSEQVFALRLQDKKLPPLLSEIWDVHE
In short: as §1

[3] = TR-FRET, 1 μM 24(S)-25-epoxycholesterol prestimulation, read-out: FRETβ (EC50 range)
[4] = full length LXRβ, read-out: FL-M2H Gal4β (EC50 range)
[5] = full length LXRα, read-out: FL-M2H Gal4α (EC50 range)
[6] = 1 μM 24(S)-25-epoxycholesterol as prestimulating agonist
[7] = 1 μM 24(S)-25-epoxycholesterol as prestimulating agonist, read-out: FRETβ potency

| SMILES | EC50 [1, 3] | EC50 (full length (FL) LXRβ; [4]) | EC50 (full length (FL) LXRα; [5]) | other results |
| --- | --- | --- | --- | --- |
| N#Cc1sccc1-c1c(-c2cccc(-c3ccc(C(=O)O)cc3Cl)c2)n(S(=O)(=O)c2ccc(C(F)F)cc2)c2ccc(F)cc12 [11/17] | < 100 nM | < 100 nM | – | liver exposure 4 h ([2]; three oral doses of 20 mg/kg): D (>10 μM); liver/plasma ratio 4 h ([2]; three oral doses of 20 mg/kg): C (30 to ≤100); plasma exposure 4 h ([2]; three oral doses of 20 mg/kg): C (C: 100 nM to <300 nM) |
| N#Cc1cccc(C#N)c1-c1c(-c2cccc([C@H]3CC[C@H](C(=O)O)CC3)c2)n(S(=O)(=O)c2ccc(C(F)F)cc2)c2ccc(F)cc12 [11/62] | 100 to 1000 nM | < 100 nM | – | liver exposure 4 h ([2]; three oral doses of 10 mg/kg): C (1 μM to ≤10 μM); liver/plasma ratio 4 h ([2]; three oral doses of 10 mg/kg): B (5 to ≤30); plasma exposure 4 h ([2]; three oral doses of 10 mg/kg): C (C: 100 nM to <300 nM) |
| Cc1ccc(S(=O)(=O)n2c(-c3cccc(-c4cc(F)c(C(=O)O)cc4Cl)c3)c(-c3ccsc3C#N)c3cc(F)ccc32)cc1 [12/2] | 100 to 1000 nM | < 100 nM | < 100 nM | – |
| Cc1ccc(S(=O)(=O)n2c(-c3cccc(-c4ccc(C(=O)O)c(F)c4Cl)c3)c(-c3ccsc3C#N)c3cc(F)ccc32)cc1 [12/3] | 100 to 1000 nM | < 100 nM | < 100 nM | – |
| COc1cc(-c2cccc(-c3c(-c4ccsc4C#N)c4cc(F)ccc4n3S(=O)(=O)c3ccc(C)cc3)c2)c(Cl)cc1C(=O)O [12/4] | 100 to 1000 nM | < 100 nM | < 100 nM | – |
| COc1c(C(=O)O)ccc(-c2cccc(-c3c(-c4ccsc4C#N)c4cc(F)ccc4n3S(=O)(=O)c3ccc(C)cc3)c2)c1Cl [12/5] | < 100 nM | < 100 nM | < 100 nM | – |
| Cc1ccc(S(=O)(=O)n2c(-c3cccc(-c4cc(C(=O)O)n[nH]4)c3)c(-c3ccsc3C#N)c3cc(F)ccc32)cc1 [12/6] | 1000 to 10000 nM | 1000 to 10000 nM | 100 to 1000 nM | – |
| Cc1ccc(S(=O)(=O)n2c(-c3cccc(-c4cc(C(=O)O)nn4C)c3)c(-c3ccsc3C#N)c3cc(F)ccc32)cc1 [12/7] | 100 to 1000 nM | 100 to 1000 nM | 100 to 1000 nM | – |
| Cc1ccc(S(=O)(=O)n2c(-c3cccc(-c4cc(C(=O)O)nn4C(C)C)c3)c(-c3ccsc3C#N)c3cc(F)ccc32)cc1 [12/8] | 1000 to 10000 nM | 100 to 1000 nM | 100 to 1000 nM | – |
| Cc1ccc(S(=O)(=O)n2c(-c3cccc(-c4ccc5c(C(=O)O)n[nH]c5c4)c3)c(-c3ccsc3C#N)c3cc(F)ccc32)cc1 [12/9] | 100 to 1000 nM | 100 to 1000 nM | 100 to 1000 nM | – |
| N#Cc1cccc(C#N)c1-c1c(-c2cccc(-c3ccc(S(=O)(=O)O)cc3Cl)c2)n(S(=O)(=O)c2ccc(C(F)F)cc2)c2ccc(F)cc12 [12/10] | < 100 nM | < 100 nM | < 100 nM | – |
| N#Cc1sccc1-c1c(-c2cccc(-c3ccc(C(=O)O)cc3)c2)n(S(=O)(=O)c2ccc3c(c2)CCC3)c2ccc(F)cc12 [23/3] | 100 to 1000 nM | < 100 nM | < 100 nM | – |
| CC(C)(O)c1ccc(S(=O)(=O)n2c(-c3cccc(-c4ccc(C(=O)O)cc4Cl)c3)c(-c3ccccc3C#N)c3cc(F)ccc32)cc1 [30/16] | 1000 to 10000 nM | 100 to 1000 nM | 100 to 1000 nM | – |
| COC(=O)C(C)(C)N(C)C(=O)C1CN(c2cccc(-c3c(-c4ccsc4C#N)c4cc(F)ccc4n3S(=O)(=O)c3ccc(C)cc3)c2)C1 [32/2] | 100 to 1000 nM | 100 to 1000 nM | 100 to 1000 nM | – |
| Cc1ccc(S(=O)(=O)n2c(-c3cccc(-c4ccc(C(=O)NS(C)(=O)=O)cc4Cl)c3)c(-c3ccsc3C#N)c3cc(F)ccc32)cc1 [32/4] | < 100 nM | < 100 nM | < 100 nM | – |
| CS(=O)(=O)NC(=O)c1ccc(-c2cccc(-c3c(-c4c(C#N)cccc4C#N)c4cc(F)ccc4n3S(=O)(=O)c3ccc(C(F)F)cc3)c2)c(Cl)c1 [32/5] | < 100 nM | < 100 nM | – | liver exposure 4 h ([2]; three oral doses of 10 mg/kg): B (300 nM to ≤1 μM); liver/plasma ratio 4 h ([2]; three oral doses of 10 mg/kg): B (5 to ≤30); plasma exposure 4 h ([2]; three oral doses of 10 mg/kg): D (D: <100 nM) |
| Cc1ccc(S(=O)(=O)n2c(-c3cccc(-c4ccc(C(=O)O)nc4C)c3)c(-c3ccsc3C#N)c3cc(F)ccc32)cc1 [36/1] | 100 to 1000 nM | < 100 nM | < 100 nM | – |
| Cc1ccc(S(=O)(=O)n2c(-c3cccc(-c4cccc(S(C)(=O)=Nc5nnn[nH]5)c4)c3)c(-c3ccsc3C#N)c3cc(F)ccc32)cc1 (stereo not drawn) [37/1] | 100 to 1000 nM | 100 to 1000 nM | 100 to 1000 nM | – |
| Cc1ccc(S(=O)(=O)n2c(-c3cccc(N4CC(C(=O)O)C4)c3)c(-c3csc(C#N)c3)c3cc(F)ccc32)cc1 [C3/29, reference compound] | – | – | – | FRETβ efficacy (value in brackets) [1, 6]: −102%; EC50 [1, 7]: 4230 nM; FL-M2H Gal4α potency (full length (FL) LXRα): inactive; FL-M2H Gal4β potency (full length (FL) LXRβ): inactive |
| O=C(O)c1ccc(-c2cccc(-c3c(-c4ccccc4)c4cc(F)ccc4n3S(=O)(=O)c3ccc(C(F)F)cc3)c2)c(Cl)c1 [C11/39, reference compound] | 100 to 1000 nM | < 100 nM | < 100 nM | FRETβ efficacy (value in brackets) [1, 6]: −91%; EC50 [1, 7]: 104 nM; FL-M2H Gal4α efficacy (value in brackets) (full length (FL) LXRα): 117%; EC50 (full length (FL) LXRα; read-out: FL-M2H Gal4α potency): 14 nM; FL-M2H Gal4β efficacy (value in brackets) (full length (FL) LXRβ): 140%; EC50 (full length (FL) LXRβ; read-out: FL-M2H Gal4β potency): 14 nM |
| N#Cc1cccc(-c2c(-c3cccc(-c4ccc(C(=O)O)cc4Cl)c3)n(S(=O)(=O)c3ccc(C(F)F)cc3)c3ccc(F)cc23)c1 [C11/48, reference compound] | < 100 nM | < 100 nM | – | FRETβ efficacy (value in brackets) [1, 6]: −96%; EC50 [1, 7]: 49 nM; FL-M2H Gal4α efficacy (value in brackets) (full length (FL) LXRα): 118%; EC50 (full length (FL) LXRα; read-out: FL-M2H Gal4α potency): 62 nM; FL-M2H Gal4β efficacy (value in brackets) (full length (FL) LXRβ): 123%; EC50 (full length (FL) LXRβ; read-out: FL-M2H Gal4β potency): 32 nM |
| Cc1ccc(S(=O)(=O)n2c(-c3cccc(-c4ccc(C(C(=O)O)N(C)C)cc4Cl)c3)c(-c3ccsc3C#N)c3cc(F)ccc32)cc1 (stereo not drawn) [Example 3, 2-(2-Chloro-3′-(3-(2-cyanothiophen-3-yl)-5-fluoro-1-tosyl-1H-indol-2-yl)-[1,1′-biphenyl]-4-yl)-2-(dimethylamino)acetic Acid] | < 100 nM | < 100 nM | < 100 nM | – |
